This test concerns the target T1, 15LOX2 (Homo sapiens, UniProt O15296).
T1 sequence (O15296 1-676): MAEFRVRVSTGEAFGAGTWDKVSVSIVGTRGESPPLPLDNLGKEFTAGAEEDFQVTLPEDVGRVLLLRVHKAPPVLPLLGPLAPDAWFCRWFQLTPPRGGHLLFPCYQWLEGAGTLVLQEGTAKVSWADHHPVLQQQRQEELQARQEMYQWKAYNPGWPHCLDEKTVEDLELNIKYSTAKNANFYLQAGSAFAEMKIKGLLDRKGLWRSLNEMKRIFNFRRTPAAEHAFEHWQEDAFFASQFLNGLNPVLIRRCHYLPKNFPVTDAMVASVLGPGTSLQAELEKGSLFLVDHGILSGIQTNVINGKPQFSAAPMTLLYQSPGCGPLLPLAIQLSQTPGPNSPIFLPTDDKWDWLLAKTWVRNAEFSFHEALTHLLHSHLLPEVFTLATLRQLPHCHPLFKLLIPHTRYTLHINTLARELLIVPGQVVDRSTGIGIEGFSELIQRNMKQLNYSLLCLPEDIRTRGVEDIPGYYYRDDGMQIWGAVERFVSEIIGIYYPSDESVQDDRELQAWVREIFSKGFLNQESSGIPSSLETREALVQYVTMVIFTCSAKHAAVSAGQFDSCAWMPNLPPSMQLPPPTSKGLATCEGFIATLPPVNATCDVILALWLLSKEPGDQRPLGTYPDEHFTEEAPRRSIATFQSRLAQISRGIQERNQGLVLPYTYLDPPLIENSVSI
T1 sequence (P30086 2-187 partner): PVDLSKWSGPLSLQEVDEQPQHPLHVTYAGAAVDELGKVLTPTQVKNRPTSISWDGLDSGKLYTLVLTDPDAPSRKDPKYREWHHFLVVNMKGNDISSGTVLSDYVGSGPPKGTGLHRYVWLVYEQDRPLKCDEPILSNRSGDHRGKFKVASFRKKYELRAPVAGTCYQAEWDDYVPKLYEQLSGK
It is filed as biochemical.

In general, IC50 refers to the concentration that inhibits the measured activity by half. Read a high IC50 as lower potency. In turn, `CCOC(=O)c1ccc(NC2CCCCC2)c(N)c1` [Fer-1, Ferrostatin-1] came in with an IC50 of 10.1 nM.

The values are drawn from PMC7596334 (Redox Biology, 2020).
